Laboratory results from patent US7176224B2, “Oxazolyl-aryloxyacetic acid derivatives and their use as PPAR agonists” (Eli Lilly and Company, priority 2000, dated 2007).

Assays:
Hu apoAI transgenic mice = assay: Evaluation of triglyceride and cholesterol levels in hu apoAI transgenic mice; assay type: in vivo; conditions: 30 mg/kg oral gavage daily for 7 days; serum HDLc FPLC area under the curve, over mice receiving vehicle
Method: Five to six week old male mice, transgenic for human apoAI [C57B1/6-tgn(apoa1) 1rub, Jackson Laboratory, Bar Harbor, Me.] were housed five per cage (10″×20″8″ with aspen chip bedding) with food (Purina 5001) and water available at all times. After an acclimation period of 2 weeks, animals were individually identified by ear notches, weighed, and assigned to groups based on body weight. Beginning the following morning, mice were dosed daily by oral gavage for 7 days using a 20 gauge, 1½″ curved disposable feeding needle (Popper & Sons). Treatments were test compounds (30 mg/kg), a positive control (fenofibrate, 100 mg/kg) or vehicle [1% carboxymethylcellulose (w/v)/0.25% Tween80 (w/v); 0.2 ml/mouse]. Prior to termination on day 7, mice were weighed and dosed. Three hours after dosing, animals were anesthetized by inhalation of isoflurane (2–4%; Abbott Laboratories, Chicago, Ill.) and blood obtained via cardiac puncture (0.7–1.0 ml). Whole blood was transferred to serum separator tubes (Vacutainer SST), chilled on ice, and permitted to clot. Serum was obtained after centrifugation at 4° C. and frozen until analysis for triglycerides, total cholesterol, compound levels, and serum lipoprotein profile by fast protein liquid chromatography (FPLC) coupled to an inline detection system. After sacrifice by cervical dislocation, the liver, heart and epididymal fat pads were excised and weighed.
The animals dosed with vehicle had average triglycerides values of 60–80 mg/dl, which were reduced by the positive control fenofibrate (33–58 mg/dl with a mean reduction of 37%). The animals dosed with vehicle had average total serum cholesterol values of 140–180 mg/dl, which were increased by fenofibrate (190–280 mg/dl, with a mean elevation of 41%). […] increased the amount of HDLc (68–96 v-sec with a mean percent increase of 48%).
Glucose was measured colorimetrically using commercially purchased reagents (Sigma #315-500). According to the manufacturers, the procedures were modified from published work (McGowan, M. W., Artiss, J. D., Strandbergh, D. R. & Zak, B. Clin Chem, 20:470–5 (1974) and Keston, A. Specific colorimetric enzymatic analytical reagents for glucose. Abstract of papers 129th Meeting ACS, 31C (1956).); and depend on the release of a mole of hydrogen peroxide for each mole of analyte, coupled with a color reaction first described by Trinder (Trinder, P. Determination of glucose in blood using glucose oxidase with an alternative oxygen acceptor. Ann Clin Biochem, 6:24 (1969)). The absorbance of the dye produced is linearly related to the analyte in the sample. The assays were further modified in our laboratory for use in a 96 well format. Standards (Sigma #339-11, Sigma #16-11, and Sigma #CC0534 for glucose, triglycerides and total cholesterol, respectively), quality control plasma (Sigma # A2034), and samples (2 or 5 μl/well) were measured in duplicate using 200 μl of reagent. An additional aliquot of sample, pipetted to a third well and diluted in 200 μl water, provided a blank for each specimen. Plates were incubated at room temperature (18, 15, and 10 minutes for glucose, triglycerides and total cholesterol, respectively) on a plate shaker (DPC Micormix 5) and absorbance read at 500 nm (glucose and total cholesterol) or 540 nm (triglycerides) on a plate reader (Wallac Victor 1420). Sample absorbances were compared to a standard curve (100–800, 10–500, and 100–400 mg/dl for glucose, triglycerides and total cholesterol, respectively). Values for the quality control sample were always within the expected range and the coefficient of variation for samples was below 10%. All samples from an experiment were assayed at the same time to minimize inter-assay variability.
Serum lipoproteins were separated and cholesterol quantitated with an in-line detection system. Sample was applied to a Superose® 6 HR 10/30 size exclusion column (Amersham Pharmacia Biotech) and eluted with phosphate buffered saline-EDTA at 0.5 ml/min. […]

db/db mice = assay: Evaluation of glucose levels in db/db mice; assay type: in vivo; conditions: 30 mg/kg oral gavage daily for 7 days; 100% = glucose not differing from lean values
Method: Five week old male diabetic (db/db) mice [C57BlKs/j-m +/+ Lepr(db), Jackson Laboratory, Bar Harbor, Me.] or lean littermates (DB/?) were housed 6 per cage (10″20″8″ with aspen chip bedding) with food (Purina 5015) and water available at all times. After an acclimation period of 2 weeks, animals were individually identified by ear notches, weighed, and bled via the tail vein for determination of initial glucose levels. Blood was collected (100 μl) from unfasted animals by wrapping each mouse in a towel, cutting the tip of the tail with a scalpel, and milking blood from the tail into a heparinized capillary tube (Fisher) balanced on the edge of the bench. Sample was discharged into a heparinized microtainer with gel separator (VWR) and retained on ice. Plasma was obtained after centrifugation at 4° C. and glucose measured immediately. Remaining plasma was frozen until the completion of the experiment, when glucose and triglycerides were assayed in all samples. […]
Glucose was measured colorimetrically using commercially purchased reagents (Sigma #315-500). […] The absorbance of the dye produced is linearly related to the analyte in the sample. […] Standards (Sigma #339-11, Sigma #16-11, and Sigma #CC0534 for glucose, triglycerides and total cholesterol, respectively), quality control plasma (Sigma # A2034), and samples (2 or 5 μl/well) were measured in duplicate using 200 μl of reagent. […]

Cc1oc(-c2cccc(-c3cccs3)c2)nc1CCOc1ccc(CC(C)(Oc2ccccc2)C(=O)O)cc1 (centres unmarked) [Example 5, 2-Methyl-3-(4-{2-[5-methyl-2-(3-thiophen-2-ylphenyl)oxazol-4-yl]ethoxy}phenyl)-2-phenoxypropionic acid]
% HDLc Increase (Hu apoAI transgenic mice): 94.5%
Glucose Normalisation (db/db mice): 71%
